Test results: ChEMBL document CHEMBL3817834, “Scaffold morphing leading to evolution of 2,4-diaminoquinolines and aminopyrazolopyrimidines as inhibitors of the ATP synthesis pathway” (Medchemcomm, 2016)
Values after ≈ are worked out from the molar mass of the structure shown. Active and inactive are the calls of the source. No cut-off for these calls is given here.

Assays:
[1] = Inhibition of ATP synthase in Mycobacterium smegmatis inverted membrane vesicles assessed as reduction in oxidative phosphorylation of ADP incubated for 60 mins in presence of NADH by luciferin/luciferase coupled […] assay; parameters: species or system Mycolicibacterium smegmatis
[2] = test system: Mycobacterium tuberculosis; test: Antimycobacterial activity against Mycobacterium tuberculosis under aerobic condition after 7 days by microdilution method; format: functional; conditions: 168 h
[3] = Selectivity index, ratio of IC50 for bovine heart mitochondrial ATP synthase to IC50 for ATP synthase in Mycobacterium smegmatis inverted membrane vesicles
[4] = Ratio of IC50 for ATP synthase in Mycobacterium smegmatis inverted membrane vesicles to IC50 for Mycobacterium bovis BCG
[5] = test system: Mycobacterium tuberculosis; test: Bactericidal activity against Mycobacterium tuberculosis under hypoxic condition after 7 days by microdilution method; format: functional; conditions: 168 h
[6] = test system: Mycobacterium tuberculosis; test: Ratio of MBC for Mycobacterium tuberculosis under hypoxic condition to MIC for Mycobacterium tuberculosis under aerobic condition; format: functional
[7] = test system: Mycobacterium tuberculosis; test: Bactericidal activity against Mycobacterium tuberculosis under aerobic condition after 7 days by microdilution method; format: functional; conditions: 168 h
[8] = test system: Mycobacterium tuberculosis; test: Antimycobacterial activity against drug sensitive Mycobacterium tuberculosis ATCC 27294 by turbidometric method; format: functional
[9] = test system: Mycobacterium tuberculosis; test: Antimycobacterial activity against drug sensitive Mycobacterium tuberculosis isolate 25618 by turbidometric method; format: functional
[10] = test system: Mycobacterium tuberculosis; test: Antimycobacterial activity against drug sensitive Mycobacterium tuberculosis Erdman by turbidometric method; format: functional; conditions: Erdman = ATCC 35801
[11] = test system: Mycobacterium tuberculosis; test: Antimycobacterial activity against drug sensitive Mycobacterium tuberculosis Beijing (E-47/94) by turbidometric method; format: functional
[12] = test system: Mycobacterium tuberculosis; test: Antimycobacterial activity against drug sensitive Mycobacterium tuberculosis Harlingen by turbidometric method; format: functional
[13] = test system: Mycobacterium tuberculosis; test: Bactericidal activity against Mycobacterium tuberculosis under replicating condition assessed as reduction in colony forming units at 3.125 to 200 uM by time kill kinetic study; format: functional, organism-based; conditions: TDE = time-dependent effect
[14] = test system: Mycobacterium tuberculosis; test: Antimycobacterial activity against Mycobacterium tuberculosis H37Rv infected in Balb/c mouse assessed as reduction in CFU in lungs at 100 to 200 mg/kg, po qd dosed 6 days per week for 2 weeks; format: functional, organism-based
[15] = test system: Mus musculus; test: T>MIC in Mycobacterium tuberculosis H37Rv infected Balb/c mouse at 100 to 200 mg/kg, po qd dosed 6 days per week for 2 weeks by LC-MS analysis
[16] = Inhibition of bovine heart mitochondrial ATP synthase assessed as reduction in oxidative phosphorylation of ADP in presence of NADH by ATP bioluminescence assay; parameters: species or system Bos taurus
[17] = test system: Mycobacterium tuberculosis; test: Antimycobacterial activity against Mycobacterium tuberculosis H37Rv infected in Balb/c mouse assessed as log reduction in CFU in lungs at 10 mg/kg, po qd dosed 6 days per week for 2 weeks; format: functional

Row | Structure (SMILES) | IC50 [1] [µM] | MIC [2] [µM] | Ratio IC50 [3] | MBC [5] [µM] | MBC [7] [µM] | MIC80 [8] [µM] | MIC80 [9] [µM] | MIC80 [10] [µM] | MIC80 [11] [µM] | MIC80 [12] [µM] | further results
1 | CCOc1ncc(Nc2cc(NCCC3CCOCC3)nc3ccnn23)cc1F | 21 | > 50 | > 1.2 |  |  |  |  |  |  |  | 
2 | COc1cc2nc(NCCC3CCOCC3)cc(Nc3cnc(OCCN(C)C)c(F)c3)c2cc1OC | 3.7 | 200 (≈ 103 µg/mL) | 1 |  |  |  |  |  |  |  | 
3 | COc1cc2nc(NCCC3CCOCC3)nc(Nc3cc(C(C)(C)C)n(C)n3)c2cc1OC | 0.1 | 6.2 (≈ 2.91 µg/mL) | 52 | 50 (≈ 23.4 µg/mL) | 25 (≈ 11.7 µg/mL) |  |  |  |  |  | Ratio IC50 [4]: 100; Ratio [6]: 15
4 | CN(C)CCOc1ncc(Nc2cc(-c3ccccc3)nc3cc(-c4ccc(F)cc4)nn23)cc1F | 0.45 | 6.2 (≈ 3.02 µg/mL) | 20 | 100 (≈ 48.7 µg/mL) | 28 (≈ 13.6 µg/mL) | 6.3 (≈ 3.07 µg/mL) | 6.3 (≈ 3.07 µg/mL) | 6.3 (≈ 3.07 µg/mL) | 6.3 (≈ 3.07 µg/mL) | 6.3 (≈ 3.07 µg/mL) | Ratio IC50 [4]: 100; Activity [13]: tde; Ratio [6]: 15; Activity [14]: Active; T>MIC [15]: 24 h
5 | CC(Nc1nc(N2CCCC2)nc2ccccc12)c1ccccc1 (stereo not given) | 2.5 | 50 (≈ 15.9 µg/mL) | < 0.04 |  |  |  |  |  |  |  | 
6 | CC1COc2c(N3CCN(C)CC3)c(F)cc3c(=O)c(C(=O)O)cn1c23 (stereo not given) [OFLOXACIN] |  |  |  |  |  | 0.7 (≈ 0.253 µg/mL) | 0.7 (≈ 0.253 µg/mL) | 0.7 (≈ 0.253 µg/mL) | 0.7 (≈ 0.253 µg/mL) | 0.7 (≈ 0.253 µg/mL) | 
7 | Cn1nc(Nc2nc(NCCC3CCOCC3)nc3ccccc23)cc1C(C)(C)C | 1.7 | 6.2 (≈ 2.53 µg/mL) | 4.5 |  |  |  |  |  |  |  | 
8 | COc1cc2nc(NCCC3CCOCC3)nc(Nc3cnc(OCCN(C)C)c(F)c3)c2cc1OC | 0.9 | 25 (≈ 12.9 µg/mL) | > 28 |  |  |  |  |  |  |  | IC50 [16]: > 25 µM
9 | CN[C@@H]1[C@H](O[C@H]2[C@H](O[C@H]3[C@H](O)[C@@H](O)[C@H](N=C(N)N)[C@@H](O)[C@@H]3N=C(N)N)O[C@@H](C)[C@]2(O)C=O)O[C@@H](CO)[C@H](O)[C@H]1O [STREPTOMYCIN] |  |  |  |  |  | 0.3 (≈ 0.174 µg/mL) | 0.3 (≈ 0.174 µg/mL) | 0.3 (≈ 0.174 µg/mL) | 0.3 (≈ 0.174 µg/mL) | 0.3 (≈ 0.174 µg/mL) | 
10 | CC(Nc1nc(N2CCCCC2)nc2ccccc12)c1ccccc1 (stereo not given) | 2.1 | 25 (≈ 8.31 µg/mL) | 2.6 |  |  |  |  |  |  |  | IC50 [16]: 2.6 µM
11 | COc1nc2ccc(Br)cc2cc1[C@@H](c1ccccc1)[C@@](O)(CCN(C)C)c1cccc2ccccc12 [BEDAQUILINE] | 0.005 | 0.2 (≈ 0.111 µg/mL) |  | 4 (≈ 2.22 µg/mL) | 1.6 (≈ 0.889 µg/mL) | 0.2 (≈ 0.111 µg/mL) | < 2 | < 2 | < 2 | < 2 | Ratio IC50 [4]: 100; Ratio [6]: 15
12 | COc1cc2nc(N3CCC(c4ccccc4Cl)C3)cc(Nc3cnc(OCC4CCCN4C)c(F)c3)c2cc1OC (stereo not given) | 0.06 | 6.2 (≈ 3.67 µg/mL) | 44 | 50 (≈ 29.6 µg/mL) | 50 (≈ 29.6 µg/mL) |  |  |  |  |  | Ratio [6]: 15
13 | COc1cc2nc(N3CCC(c4ccccc4Cl)C3)cc(Nc3cnc(OCCN(C)C)c(F)c3)c2cc1OC (stereo not given) | 0.04 | 1.6 (≈ 0.906 µg/mL) | 128 | 200 (≈ 113 µg/mL) | 54 (≈ 30.6 µg/mL) | 6.3 (≈ 3.57 µg/mL) | 3.1 (≈ 1.75 µg/mL) | 3.1 (≈ 1.75 µg/mL) | 3.1 (≈ 1.75 µg/mL) | 3.1 (≈ 1.75 µg/mL) | Ratio IC50 [4]: 100
14 | COc1cc2nc(NCCC3CCOCC3)nc(Nc3cnc(OC)c(C)c3)c2cc1OC | 0.4 | 3.1 (≈ 1.41 µg/mL) | 10 | 13 (≈ 5.9 µg/mL) | 25 (≈ 11.3 µg/mL) |  |  |  |  |  | Ratio [6]: 15
15 | CC[C@@H](CO)NCCN[C@@H](CC)CO [ETHAMBUTOL] |  |  |  |  |  | 9.8 (≈ 2 µg/mL) | 9.8 (≈ 2 µg/mL) | 9.8 (≈ 2 µg/mL) | 9.8 (≈ 2 µg/mL) | 9.8 (≈ 2 µg/mL) | 
16 | N#CC(C#N)=NNc1cccc(Cl)c1 [CARBONYL CYANIDE M-CHLOROPHENYLHYDRAZONE] | 4.8 |  |  |  |  |  |  |  |  |  | 
17 | COc1cc2nc(NCCC3CCOCC3)nc(Nc3ncc(C(C)C)s3)c2cc1OC | 0.1 | 6.2 (≈ 2.84 µg/mL) |  | 50 (≈ 22.9 µg/mL) | 25 (≈ 11.4 µg/mL) |  |  |  |  |  | Ratio [6]: 15
18 | CN(C)CCOc1ncc(Nc2cc(-c3ccccc3)nc3cc(-c4ccc(F)cc4)[nH]c23)cc1F | 0.1 | 0.8 (≈ 0.388 µg/mL) | 13 |  |  | 3.1 (≈ 1.51 µg/mL) | 3.1 (≈ 1.51 µg/mL) | 3.1 (≈ 1.51 µg/mL) | 3.1 (≈ 1.51 µg/mL) | 3.1 (≈ 1.51 µg/mL) | Ratio IC50 [4]: 100
19 | CCOc1ncc(Nc2nc(OCCC3CCOCC3)nc3cc(OC)c(OC)cc23)cc1F | 25 | > 200 |  |  |  |  |  |  |  |  | 
20 | COc1cc2nc(NCCc3ccccc3Cl)cc(Nc3cnc(OCCN(C)C)c(F)c3)c2cc1OC | 0.06 | 3.1 (≈ 1.67 µg/mL) | 79 |  |  |  |  |  |  |  | 
21 | CN(C)CCOc1ncc(Nc2cc(N3CCC(c4ccccc4Cl)C3)nc3cc(F)c(F)cc23)cc1F (stereo not given) | 0.1 | 3.1 (≈ 1.68 µg/mL) | 19 | 50 (≈ 27.1 µg/mL) | 38 (≈ 20.6 µg/mL) | 3.1 (≈ 1.68 µg/mL) | 3.1 (≈ 1.68 µg/mL) | 3.1 (≈ 1.68 µg/mL) | 3.1 (≈ 1.68 µg/mL) | 3.1 (≈ 1.68 µg/mL) | Ratio IC50 [4]: 100; Ratio [6]: 15; Activity [14]: Active
22 | CN(C)CCOc1ncc(Nc2cc(C(F)(F)F)nc3cc(-c4ccc(F)cc4)nn23)cc1F | 0.5 | 12.5 (≈ 5.98 µg/mL) | 19 |  |  |  |  |  |  |  | Ratio IC50 [4]: 100
23 | COc1cc2nc(NCCc3cccnc3)nc(Nc3cnc(OC)c(C)c3)c2cc1OC | 0.1 | > 200 | 96 |  |  |  |  |  |  |  | 
24 | NNC(=O)c1ccncc1 [ISONIAZID] |  |  |  |  |  | 0.2 (≈ 0.0274 µg/mL) | 0.2 (≈ 0.0274 µg/mL) | 0.2 (≈ 0.0274 µg/mL) | 0.2 (≈ 0.0274 µg/mL) | 0.2 (≈ 0.0274 µg/mL) | Activity [17]: >2 deltalog10CFU
25 | CCOc1ncc(Nc2cc(NCCC3CCOCC3)nc3cc(OC)c(OC)cc23)cc1F | 0.8 | 6.2 (≈ 2.92 µg/mL) | 3.2 |  |  |  |  |  |  |  | Ratio IC50 [4]: 100
26 | COc1cc2nc(N3CCC(c4ccccc4Cl)C3)cc(Nc3cnc(NCCN(C)C)c(F)c3)c2cc1OC (stereo not given) | 0.1 | 1.6 (≈ 0.904 µg/mL) | 51 |  |  |  |  |  |  |  | 
27 | CO[C@H]1/C=C/O[C@@]2(C)Oc3c(C)c(O)c4c(O)c(c(/C=N/N5CCN(C)CC5)c(O)c4c3C2=O)NC(=O)/C(C)=C\C=C\[C@H](C)[C@H](O)[C@@H](C)[C@@H](O)[C@@H](C)[C@H](OC(C)=O)[C@@H]1C [RIFAMPIN] |  |  |  |  |  | 0.04 (≈ 0.0329 µg/mL) | 0.04 (≈ 0.0329 µg/mL) | 0.04 (≈ 0.0329 µg/mL) | 0.04 (≈ 0.0329 µg/mL) | 0.04 (≈ 0.0329 µg/mL) | 
28 | CCOc1ncc(Nc2nc(NCCC3CCOCC3)nc3cc(OC)c(OC)cc23)cc1F | 0.6 | 1.9 (≈ 0.896 µg/mL) | 2.3 | 3 (≈ 1.41 µg/mL) | 19 (≈ 8.96 µg/mL) |  |  |  |  |  | Ratio [6]: 15
